Structures can show the parent of a compound that is named as a salt. Where two headings read alike, the source gives them in different places.
Assays:
[1] = target: BIR3 domain of human cIAP-1 (residues 267-363) (Homo sapiens (Human), UniProt Q13490); experiment: cIAP-1 in vitro competitive displacement binding assay (fluorescence polarization; Probe A AVPIK(5&6FAM)-amide or Probe B AbuRPFK(5&6FAM)-amide)
[2] = target: BIR3 domain of human XIAP (residues 252-350) (Homo sapiens (Human), UniProt P98170); experiment: XIAP in vitro competitive displacement binding assay (fluorescence polarization); conditions: for IC50: read-out: IC50 or PI Xiap: IC50
[3] = tested on: EVSA-T (human breast carcinoma); experiment: Anti-proliferative activity, Alamar Blue assay, EVSA-T; type: cell-based; conditions: Homo sapiens, EVSA-T; for EC50: read-out: EVSA-T prolif (EC50)
[4] = read-out: IC50 or PI cIAP1: IC50
[5] = at 10 μM, read-out: EVSA-T prolif: % inhibition
[6] = Probe B AbuRPFK(5&6FAM)-amide, read-out: IC50 or PI cIAP1: IC50
[7] = 3 h, Probe B, read-out: IC50 or PI cIAP1: PI

Row | IC50 [2] [nM] | EC50 ([3]; 72 hours, Alamar Blue) [nM] | Structure (SMILES) | IC50 [1] [nM] | IC50 [1, 4] [nM] | other results
1 | 220 | – | C[C@@H]1CN(CC(=O)N2CC3(Cc4ccccc4C3)c3ccc(Cl)cc32)[C@@H](Cn2cccn2)CN1 [Example 142, 1-{6′-Chloro-1,1′,2′,3-tetrahydrospiro[indene-2,3′-indole]-1′-yl}-2-[(2R,5R)-5-methyl-2-(1H-pyrazol-1-ylmethyl)piperazin-1-yl]ethan-1-one hydrochloride] | – | – | IC50 [1, 6]: 150 nM; inhibition at 1 µM ([3]; at 1 μM, read-out: EVSA-T prolif: % inhibition): 20%
2 | 67 | 95 | C[C@@H]1CN(CC(=O)N2CC(C)(C)c3cnc(Cc4ccccc4)cc32)[C@@H](Cn2cccn2)CN1 [Example 112, 1-(6-Benzyl-3,3-dimethyl-2,3-dihydro-pyrrolo[3,2-c]pyridin-1-yl)-2-((2R,5R)-5-methyl-2-pyrazol-1-ylmethyl-piperazin-1-yl)-ethanone] | – | – | inhibition at 0.01 µM [1, 7]: 69%
3 | 82 | 190 | CCC(F)(F)c1cc2c(cn1)C(C)(C)CN2C(=O)CN1C[C@@H](C)NC[C@@H]1CN1CC[C@@H](F)C1 [Example 214, 1-[6-(1,1-Difluoropropyl)-3,3-dimethyl-1H,2H,3H-pyrrolo[3,2-c]pyridin-1-yl]-2-[(2R,5R)-2-{[(3R)-3-fluoropyrrolidin-1-yl]methyl]-5-methylpiperazin-1-yl]ethan-1-one hydrochloride] | < 1000 | – | IC50 [1, 6]: 24 nM
4 | 74 | 71 | C[C@@H]1CN(CC(=O)N2CC(C)(C)c3ccc(Cc4ccccc4)cc32)[C@@H](C(=O)N2CCOCC2)CN1 [Example 111, 1-(6-Benzyl-3,3-dimethyl-2,3-dihydro-indol-1-yl)-2-[(2R,5R)-5-methyl-2-(morpholine-4-carbonyl)-piperazin-1-yl]-ethanone, hydrochloride salt] | – | – | inhibition at 0.01 µM [1, 7]: 63%
5 | 960 | – | C[C@@H]1CN(CC(=O)N2CC(C)(C)c3ccc(Cl)cc32)[C@@H](CO)CN1 [Example 40, 1-(6-Chloro-3,3-dimethyl-2,3-dihydro-indol-1-yl)-2-((2R,5R)-2-hydroxymethyl-5-methyl-piperazin-1-yl)-ethanone hydrochloride salt] | < 1000 | – | IC50 ([1]; Probe A AVPIK(5&6FAM)-amide, read-out: IC50 or PI cIAP1: IC50): 820 nM; inhibition at 10 µM [3, 5]: 45%
6 | – | 4 | CCCC(F)(F)c1cc2c(cn1)C(C)(C)CN2C(=O)CN1C[C@@H](C)NC[C@@H]1CN1CCOC[C@H]1C [Example 252, 1-[6-(1,1-Difluorobutyl)-3,3-dimethyl-1H,2H,3H-pyrrolo[3,2-c]pyridin-1-yl]-2-[(2R,5R)-5-methyl-2-{[(3R)-3-methylmorpholin-4-yl]methyl}piperazin-1-yl]ethan-1-one diydrochloride] | – | – | inhibition at […] ([1]; 3 h, Probe B, @ 0.012 μM, read-out: IC50 or PI cIAP1: PI): 91%; inhibition at 0.04 µM ([2]; 1 h, @ 0.04 μM, read-out: IC50 or PI Xiap: PI): 72%

Row | Structure (SMILES) | IC50 [2] [nM] | EC50 ([3]; 72 hours, Alamar Blue) [nM] | IC50 [1] [nM] | IC50 [1, 4] [nM] | other results
7 | COC[C@H]1CN[C@H](C)CN1CC(=O)N1CC(C)(C)c2cnc(C#N)cc21 [Example 103, 1-{2-[(2R,5R)-2-(Methoxymethyl)-5-methylpiperazin-1-yl]acetyl}-3,3-dimethyl-1H,2H,3H-pyrrolo[3,2-c]pyridine-6-carbonitrile] | 420 | – | < 1000 | 870 | inhibition at 10 µM [3, 5]: 12%
8 | COC[C@H]1CN[C@H](C)CN1CC(=O)N1CC(C)(C)c2ccc(S(=O)(=O)NC(C)C)cc21 [Example 69, 1-[2-((2R,5R)-2-Methoxymethyl-5-methyl-piperazin-1-yl)-acetyl]-3,3-dimethyl-2,3-dihydro-1H-indole-6-sulfonic acid isopropylamide dihydrochloride salt] | 280 | – | – | 1400 | inhibition at 10 µM ([3]; read-out: EVSA-T prolif: % inhibition): 54%
9 | CC[C@@H]1COCCN1C[C@H]1CN[C@H](C)CN1CC(=O)N1CC(C)(C)c2ncc(C(C)(F)F)cc21 [Example 253, 1-[6-(1,1-Difluoroethyl)-3,3-dimethyl-1H,2H,3H-pyrrolo[3,2-b]pyridin-1-yl]-2-[(2R,5R)-2-{[(3R)-3-ethylmorpholin-4-yl]methyl}-5-methylpiperazin-1-yl]ethan-1-one dihydrochloride] | 50 | – | < 1000 | 17 | EC50 ([3]; 72 h): 51 nM

Reference: patent US9018214B2, “Bicyclic heterocycle compounds and their uses in therapy” (Astex Therapeutics Limited, priority 2011, dated 2015)
